# Key:
# Staphylococcus aureus [1] = assay: Antibacterial activity against fluoroquinolone-resistant Staphylococcus aureus 1095; assay type: functional
# Staphylococcus aureus [2] = assay: Antibacterial activity against fluoroquinolone-resistant Staphylococcus aureus harboring DNA gyrase D83N mutant; assay type: functional
# DNA gyrase = DNA gyrase (Staphylococcus aureus, UniProt P0A0K8+P20831); assay: Inhibition of Staphylococcus aureus DNA gyrase; assay type: protein-complex assay
# [3] = Inhibition of Staphylococcus aureus DNA topoisomerase 4
# Staphylococcus aureus [4] = assay: Antibacterial activity against Staphylococcus aureus 1146; assay type: functional
# Staphylococcus aureus [5] = assay: Antibacterial activity against fluoroquinolone-resistant Staphylococcus aureus harboring DNA gyrase M121K mutant; assay type: functional
Compound,MIC (Staphylococcus aureus [1]) [µg/mL],MIC (Staphylococcus aureus [2]) [µg/mL],IC50 (DNA gyrase) [µM],IC50 [3] [µM],MIC (Staphylococcus aureus [4]) [µg/mL],MIC (Staphylococcus aureus [5]) [µg/mL]
COc1ccc(C2CC(N3CC[C@@H](CC[C@H](O)c4ccnc5ccc(OC)cc45)[C@@H](C(=O)O)C3)C2)c(F)c1 (stereo not given in full),64,> 64,50,> 240,,
COc1ccc2nccc([C@@H](O)CC[C@@H]3CCN(C4CC(c5cccc(C#N)c5)C4)C[C@@H]3C(=O)O)c2c1 (stereo not given in full),16,,9.4,> 200,,
COc1ccc2nccc([C@@H](O)CC[C@@H]3CCN(C4CC(c5ccc(C#N)cc5)C4)C[C@@H]3C(=O)O)c2c1 (stereo not given in full),> 64,,> 50,240,> 64,
COc1ccc2nccc([C@@H](O)CC[C@@H]3CCN(C4CC(c5cc(F)c(OC)cc5F)C4)C[C@@H]3C(=O)O)c2c1 (stereo not given in full),> 64,> 64,50,240,32,> 64
COc1ccc2nccc([C@@H](O)CC[C@@H]3CCN(C4CC(c5cc(Cl)ccc5F)C4)C[C@@H]3C(=O)O)c2c1 (stereo not given in full),≤ 0.0625,64,1.56,33.3,≤ 0.0625,64
COc1ccc2nccc([C@@H](O)CC[C@@H]3CCN(C4CC(c5ccccc5OC)C4)C[C@@H]3C(=O)O)c2c1 (stereo not given in full),1,,6.25,> 240,0.5,
COc1ccc2nccc([C@@H](O)CC[C@@H]3CCN(C4CC(c5cccc(F)c5F)C4)C[C@@H]3C(=O)O)c2c1 (stereo not given in full),< 0.0625,32,1.56,30,≤ 0.0625,32
COc1ccc2nccc([C@@H](O)CC[C@@H]3CCN(C4CC(c5c(F)cccc5OC)C4)C[C@@H]3C(=O)O)c2c1 (stereo not given in full),2,,12.5,100,0.25,
COc1ccc2nccc([C@@H](O)CC[C@@H]3CCN(C4CC(c5c(F)cccc5C(F)(F)F)C4)C[C@@H]3C(=O)O)c2c1 (stereo not given in full),2,,19,> 100,0.5,
COc1ccc2nccc([C@@H](O)CC[C@@H]3CCN(C4CC(c5cc(F)ccc5OC)C4)C[C@@H]3C(=O)O)c2c1 (stereo not given in full),4,,12.5,37,0.5,
COc1ccc2nccc([C@@H](O)CC[C@@H]3CCN(C4CC(c5cc(Br)ccc5F)C4)C[C@@H]3C(=O)O)c2c1 (stereo not given in full),0.25,,3.13,50,≤ 0.0625,
COc1ccc2nccc([C@@H](O)CC[C@@H]3CCN(C4CC(c5ccccc5C(F)(F)F)C4)C[C@@H]3C(=O)O)c2c1 (stereo not given in full),0.25,,1.56,60,0.125,
COc1ccc2nccc([C@@H](O)CC[C@@H]3CCN(C4CC(c5cc(F)ccc5C)C4)C[C@@H]3C(=O)O)c2c1 (stereo not given in full),0.5,,2.3,45,0.125,
COc1ccc2nccc([C@@H](O)CC[C@@H]3CCN(C4CC(c5c(OC)ccc(F)c5F)C4)C[C@@H]3C(=O)O)c2c1 (stereo not given in full),2,64,1.56,45,0.25,> 64
COc1ccc2nccc([C@@H](O)CC[C@@H]3CCN(C4CC(c5c(F)ccc(F)c5OC)C4)C[C@@H]3C(=O)O)c2c1 (stereo not given in full),≤ 0.0625,64,3.13,25,≤ 0.0625,> 64
COc1ccc2nccc([C@@H](O)CC[C@@H]3CCN(C4CC(c5cc(F)cc(F)c5OC)C4)C[C@@H]3C(=O)O)c2c1 (stereo not given in full),2,32,6.25,60,0.5,64
COc1ccc2nccc([C@@H](O)CC[C@@H]3CCN(C4CC(c5cc(C#N)ccc5F)C4)C[C@@H]3C(=O)O)c2c1 (stereo not given in full),8,64,9.4,120,2,
COc1ccc2nccc([C@@H](O)CC[C@@H]3CCN(C4CC(c5ccccc5SC)C4)C[C@@H]3C(=O)O)c2c1 (stereo not given in full),2,64,3.13,50,0.25,
COc1ccc2nccc([C@@H](O)CC[C@@H]3CCN(C4CC(c5cccc(SC)c5)C4)C[C@@H]3C(=O)O)c2c1 (stereo not given in full),8,64,4.7,150,2,
COc1ccc2nccc([C@@H](O)CC[C@@H]3CCN(C4CC(c5cc(SC)ccc5F)C4)C[C@@H]3C(=O)O)c2c1 (stereo not given in full),2,64,3.13,50,0.25,
COc1ccc2nccc([C@@H](O)CC[C@@H]3CCN(C/C=C/c4ccccc4)C[C@@H]3C(=O)O)c2c1,1,> 64,4.7,> 200,0.5,> 64
COc1ccc2nccc([C@@H](O)CC[C@@H]3CCN(C4CC(c5ncc(C)o5)C4)C[C@@H]3C(=O)O)c2c1 (stereo not given in full),8,,6.25,> 100,2,

# From ChEMBL document CHEMBL2380208, “Novel quinoline derivatives as inhibitors of bacterial DNA gyrase and topoisomerase IV” (Bioorg Med Chem Lett, 2013)
